Source: patent publication US9873693B2 (Sunesis Pharmaceuticals, Inc., priority 2006, dated 2018)
Where two headings read alike, the source gives them in different places.

Columns and labels:
phospho-akt (Thr308) = phospho-akt (Thr308) MSD ELISA in PC-3 cells; type: cell-based; settings: Homo sapiens; for EC50: PC-3, 2 h; for inhibition at 1 µM / inhibition at 10 µM: read-out: Percent Inhibition of phospho-Akt (308) By MSD ELISA
Method in brief: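 Read-out is MSD electrochemiluminescence after lysate capture overnight at 4 degrees and 1 hr RT detection-antibody step. Before lysis, overnight-plated PC-3 cells received three-fold serial dilutions of inhibitor in serum-free medium, with DMSO-only high controls.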

dephosphorylated PDK1 = dephosphorylated PDK1 (Homo sapiens (Human), UniProt O15530); test: PDK1 kinase assay (coupled PDK1/AKT/FAM-crosstide, IMAP); type: biochemical; settings: 25 nM un-phosphorylated PDK1, 24 μM ATP; read-out: Inhibition of dephospo-PDK1 in vitro IC50
Method: A PDK1 kinase assay was performed as follows. PDK1 (amino acids 51-360) and AKT2 (amino acids 140-467 fused to PIFtide, amino acids […]) were expressed as N-terminally tagged GST fusion proteins in insect cells and purified to greater than 90% homogeneity. PDK1 protein was divided into two fractions, one of which was subsequently dephosphorylated. To generate dephosphorylated PDK1, the PDK1 was reacted with GST-tagged lambda-phosphatase in vitro. GST was subsequently cleaved proteolytically for both phosphorylated and dephosphorylated PDK1. Protein preparations were run on glutathione Sepharose columns to remove GST and GST-tagged lambda-phosphatase, if present. Phosphorylated PDK1 and dephosphorylated PDK1 were verified by mass-spectrometry. Enzyme activity was determined in a coupled PDK1/AKT/FAM-crosstide assay using either phosphorylated or unphosphorylated PDK1 and phosphorylation of FAM-crosstide was determined by standard IMAP protocol (Molecular Devices). For inhibition studies, compounds were titrated 3-fold in DMSO and diluted 40-fold into assay buffer (10 mM Tris HCl pH7.2; 10 mM MgCl2; 0.01% Triton X-100; 1 mM DTT) containing PDK1, AKT2, and FAM-crosstide. (final concentrations: 25 nM un-phosphorylated PDK1 or 0.5 nM phosphorylated PDK1, 30 nM unphosphorylated AKT2, and 100 nM crosstide substrate). The kinase reaction was initiated by adding ATP to a final concentration of 24 μM for both forms of PDK1 and incubated at 25° C. for 30 min. To detect assay product, the kinase reaction was combined with Progressive Binding Solution (1:600 Progressive Binding Reagent, 50% Buffer A, 50% Buffer B, Molecular Devices) in a 1:3 ratio. The mixture was incubated for 2 hours at 25° C. and the plate was scanned on an Analyst AD with excitation at 485 nm and emission at 530 nm. The fluorescence polarization value “P” is defined by the equation below. The value “mP” is generated by multiplying the P value for each reaction well by a factor of 1000. The value “ΔmP” for each well is the mP value for that well minus the mP value for the average negative control. P=(Fpar−Fperp)/(Fpar+Fperp) Eq.:
Where “par” is fluorescence intensity parallel to the excitation plane; and “perp” is fluorescence intensity perpendicular to the excitation plane. ΔmP values were plotted as a function of compound concentration and the data were analyzed with a 4-parameter fit using GraphPad Prism software.

phosphorylated PDK1 = phosphorylated PDK1 (Homo sapiens (Human), UniProt O15530); test: as above; type: biochemical; settings: 0.5 nM phosphorylated PDK1, 24 μM ATP; read-out: Inhibition of phospo-PDK1 in vitro IC50
[1] = PC-3 cells, 2 hours, no serum, read-out: Inhibition of P308 Akt in cells using MSD EC50
[2] = PC-3 cells, 2 hours, no serum, read-out: Reduction of Cellular Levels of Akt p308 By MSD ELISA (EC50 μM)
[3] = read-out: Inhibition of P308 Akt in cells using MSD EC50

Chain of phosphorylated PDK1 (O15530 51-360): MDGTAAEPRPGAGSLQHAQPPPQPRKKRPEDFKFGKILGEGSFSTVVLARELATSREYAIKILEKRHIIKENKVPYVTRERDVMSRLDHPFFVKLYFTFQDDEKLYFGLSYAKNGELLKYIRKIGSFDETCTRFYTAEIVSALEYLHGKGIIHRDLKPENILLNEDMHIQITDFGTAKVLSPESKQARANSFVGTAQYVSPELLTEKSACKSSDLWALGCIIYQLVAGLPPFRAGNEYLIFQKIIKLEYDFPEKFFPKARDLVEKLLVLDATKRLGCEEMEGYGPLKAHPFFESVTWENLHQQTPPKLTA
Chain of dephosphorylated PDK1 (O15530 51-360): as above

| Compound | EC50 (phospho-akt (Thr308); [1]) | IC50 (dephosphorylated PDK1) | IC50 (phosphorylated PDK1) | inhibition at 1 µM (phospho-akt (Thr308); PC-3 cells) | inhibition at 10 µM (phospho-akt (Thr308); PC-3 cells) | EC50 (phospho-akt (Thr308); [2]) | EC50 (phospho-akt (Thr308); [3]) | EC50 (phospho-akt (Thr308); read-out: Reduction of Cellular Levels of Akt p308 By MSD ELISA (EC50 μM)) |
| --- | --- | --- | --- | --- | --- | --- | --- | --- |
| O=C(NCc1csc(-c2c[nH]c3ncccc23)n1)c1cccn(Cc2ccc(F)c(F)c2)c1=O [Cpd 121] | < 1 µM | < 500 nM | < 500 nM |  |  |  |  |  |
| Cc1ccc(Cn2cccc(C(=O)NCc3noc(-c4c[nH]c5ncccc45)n3)c2=O)cc1Cl [Cpd 317] | > 5 µM | < 500 nM | < 500 nM | 25 to 75% | > 75% |  |  |  |
| Cc1ccc(NC(=O)c2cccn(Cc3ccc(F)c(F)c3)c2=O)cc1-c1ccc2[nH]c(=O)[nH]c2c1 [Cpd 167] | > 5 µM | 500 to 10000 nM | 500 to 10000 nM |  |  |  |  |  |
| O=C(N[C@H]1CC[C@@H](c2c[nH]c3ncccc32)CC1)c1cccn(Cc2ccc(F)c(F)c2)c1=O [Cpd 1] | > 5 µM | < 500 nM | < 500 nM |  |  | > 5 µM |  |  |
| CCC[C@H](COc1ccc2[nH]c(=O)[nH]c2c1)NC(=O)c1cccn(Cc2ccc(F)c(F)c2)c1=O [Cpd 322] | 1 to 5 µM | < 500 nM | < 500 nM |  |  | 1 to 5 µM |  |  |
| O=C1Cc2ccc(/C=C/CNC(=O)c3cccn(Cc4cc(F)c(F)c(F)c4)c3=O)cc2N1 [Cpd 166] | > 5 µM | < 500 nM | < 500 nM |  |  |  |  |  |
| COC(=O)c1cc(-c2c[nH]c3ncccc23)cc(CNC(=O)c2cccn(Cc3ccc(F)c(F)c3)c2=O)n1 [Cpd 175] | < 1 µM | < 500 nM | < 500 nM |  |  |  |  |  |
| O=C(NCc1cccc(-c2ccc3cn[nH]c3c2)c1)c1cccn(Cc2ccc(F)c(F)c2)c1=O [Cpd 328] | > 5 µM | < 500 nM | < 500 nM |  |  |  |  |  |
| C[C@@H](c1ccc(F)cc1)n1cccc(C(=O)NCc2noc(-c3c[nH]c4ncccc34)n2)c1=O [Cpd 311] |  | < 500 nM | < 500 nM | < 25% | > 75% |  |  |  |
| O=C(NCc1noc(-c2c[nH]c3ncccc23)n1)c1cccn(Cc2cc(F)cc(F)c2)c1=O [Cpd 150] | > 5 µM | < 500 nM | < 500 nM |  |  |  |  |  |
| O=C(NCc1nnc(-c2c[nH]c3ncccc23)o1)c1cccn(Cc2ccc(F)c(F)c2)c1=O [Cpd 125] | 1 to 5 µM | < 500 nM | < 500 nM | 25 to 75% | > 75% | 1 to 5 µM |  |  |
| CC1(C)C(=O)Nc2cc(/C=C/CNC(=O)c3cccn(Cc4cc(F)c(F)c(F)c4)c3=O)ccc21 [Cpd 206] | 1 to 5 µM | < 500 nM | 500 to 10000 nM |  |  |  |  |  |
| O=C(NCc1ccc(-c2c[nH]c3ncc(Cl)cc23)s1)c1cccn(Cc2ccc(F)c(F)c2)c1=O [Cpd 23] | > 5 µM | < 500 nM | < 500 nM |  |  | > 5 µM |  |  |
| Nc1cc(C(=O)NCc2noc(-c3c[nH]c4ncccc34)n2)c(=O)n(Cc2cc(F)c(F)c(F)c2)c1 [Cpd 187] | > 5 µM | < 500 nM | < 500 nM |  |  |  |  |  |
| CC(C)n1c(=O)[nH]c2cc(OCCNC(=O)c3cccn(Cc4ccc(F)c(F)c4)c3=O)ccc21 [Cpd 280] | > 5 µM | < 500 nM | < 500 nM | 25 to 75% | 25 to 75% |  |  |  |
| O=C(NCc1ccc(-c2n[nH]c3ncccc23)s1)c1cccn(Cc2ccc(F)c(F)c2)c1=O [Cpd 7] | < 1 µM | < 500 nM | < 500 nM | 25 to 75% | > 75% | < 1 µM |  |  |
| O=C(NCc1ccc(-c2cccc3[nH]ncc23)s1)c1cccn(Cc2ccc(F)c(F)c2)c1=O [Cpd 58] | 1 to 5 µM | < 500 nM | < 500 nM |  |  |  |  |  |
| O=C(Nc1cccc(Cc2c[nH]c3ncccc23)c1)c1cccn(Cc2ccc(F)c(F)c2)c1=O [Cpd 128] | > 5 µM | < 500 nM | 500 to 10000 nM |  |  |  |  |  |

| Compound | EC50 (phospho-akt (Thr308); [1]) | IC50 (dephosphorylated PDK1) | IC50 (phosphorylated PDK1) | inhibition at 1 µM (phospho-akt (Thr308); PC-3 cells) | inhibition at 10 µM (phospho-akt (Thr308); PC-3 cells) | EC50 (phospho-akt (Thr308); [2]) | EC50 (phospho-akt (Thr308); [3]) | EC50 (phospho-akt (Thr308); read-out: Reduction of Cellular Levels of Akt p308 By MSD ELISA (EC50 μM)) |
| --- | --- | --- | --- | --- | --- | --- | --- | --- |
| O=C(NCc1noc(-c2c[nH]c3ncccc23)n1)c1cccn(Cc2ccc(C(F)(F)F)c(F)c2)c1=O [Cpd 141] | 1 to 5 µM | < 500 nM | < 500 nM |  |  | 1 to 5 µM |  |  |
| CN(C)C(=O)C[C@@H](NC(=O)c1cccn(Cc2ccc(F)c(F)c2)c1=O)c1ccc(-c2c[nH]c3ncccc23)s1 [Cpd 237] | > 5 µM | < 500 nM | < 500 nM | < 25% | 25 to 75% |  |  |  |
| O=C(N[C@H](CCCO)c1nc(-c2c[nH]c3ncccc23)c[nH]1)c1cccn(Cc2ccc(F)c(F)c2)c1=O [Cpd 313] |  | < 500 nM | < 500 nM | 25 to 75% | 25 to 75% |  |  |  |
| O=C(NCc1noc(-c2c[nH]c3ncccc23)n1)c1cc(Cl)cn(Cc2ccc(F)cc2)c1=O [Cpd 319] | > 5 µM | < 500 nM | < 500 nM | < 25% | 25 to 75% |  |  |  |
| O=C(N[C@@H](COc1ccc2[nH]c(=O)[nH]c2c1)Cc1ccccc1)c1cccn(Cc2ccc(F)c(F)c2)c1=O [Cpd 321] | > 5 µM | < 500 nM | < 500 nM | < 25% | > 75% |  |  |  |
| O=C(NCc1cccc(-c2ccc3[nH]ncc3c2)c1)c1cccn(Cc2ccc(F)c(F)c2)c1=O [Cpd 213] |  | < 500 nM | < 500 nM |  |  | 1 to 5 µM |  |  |
| NC(=O)C(NC(=O)c1cccn(Cc2ccc(F)c(F)c2)c1=O)c1ccc(-c2c[nH]c3ncccc23)s1 (stereo not shown) [Cpd 24] |  | < 500 nM | < 500 nM |  |  |  | 1 to 5 µM | 1 to 5 µM |
| O=C(NCc1noc(-c2c[nH]c3ncccc23)n1)c1cc(Cl)cn(Cc2ccc(F)c(F)c2)c1=O [Cpd 314] | > 5 µM | < 500 nM | < 500 nM | 25 to 75% | > 75% |  |  |  |
| O=C(NCc1ccc(-c2ccc3[nH]ncc3c2)s1)c1cccn(Cc2ccc(F)c(F)c2)c1=O [Cpd 52] | 1 to 5 µM | < 500 nM | < 500 nM |  |  |  |  |  |
| O=C(NCCOc1ccc2cc[nH]c2c1)c1cccn(Cc2ccc(F)c(F)c2)c1=O [Cpd 179] | > 5 µM | 500 to 10000 nM | 500 to 10000 nM |  |  |  |  |  |
| O=C(NCCOc1ccc2c(c1)[nH]c(=O)n2C1CC1)c1cccn(Cc2ccc(F)c(F)c2)c1=O [Cpd 282] | > 5 µM | < 500 nM | < 500 nM | < 25% | 25 to 75% |  |  |  |
| O=C(NCc1noc(-c2c[nH]c3ncccc23)n1)c1cc(Cl)cn(Cc2ccc(Cl)c(F)c2)c1=O [Cpd 316] |  | < 500 nM | < 500 nM | 25 to 75% | 25 to 75% |  |  |  |
| O=C1Cc2ccc(/C=C/CNC(=O)c3cc(Cl)cn(Cc4cc(F)c(F)c(F)c4)c3=O)cc2N1 [Cpd 193] |  | < 500 nM | < 500 nM |  |  |  | > 5 µM |  |
| O=C(NCc1noc(-c2c[nH]c3ncccc23)n1)c1cccn(Cc2ccc(C(F)(F)F)cc2)c1=O [Cpd 143] | > 5 µM | < 500 nM | < 500 nM |  |  | > 5 µM |  |  |
| O=C(NCc1cc(-c2c[nH]c3ncccc23)[nH]n1)c1cccn(Cc2cc(F)c(F)c(F)c2)c1=O [Cpd 152] | 1 to 5 µM | < 500 nM | < 500 nM |  |  |  |  |  |
| NC(=O)CC[C@@H](NC(=O)c1cccn(Cc2ccc(F)c(F)c2)c1=O)c1nc(-c2c[nH]c3ncccc23)cs1 [Cpd 318] |  | < 500 nM | < 500 nM | < 25% | 25 to 75% |  |  |  |
| O=C(NCc1cccc(-c2c[nH]c3cnccc23)c1)c1cccn(Cc2ccc(F)c(F)c2)c1=O [Cpd 242] |  | < 500 nM | 500 to 10000 nM | < 25% | > 75% |  |  |  |
